Patent US6054435A, “6-O-substituted macrolides having antibacterial activity” (priority 1999, dated 2000)
Values after ≈ are worked out from the molar mass of the structure shown.

What was measured:
Assay in all cases: in vitro antibacterial activity (MIC), agar dilution
Assay type in all cases: cell-based
[1] = tested on: Streptococcus pyogenes PIU 2548; details: organism code NN; BHI agar, 35-37° C., 20 to 24 hours; unit assumed
Outline: (§1)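 Antibacterial MIC determined by agar dilution in BHI agar with twelve successive concentrations; controls comprised compound-free plates and a same-class reference antibiotic. MIC: lowest concentration giving no growth, slight haze or sparsely isolated colonies.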

[2] = tested on: Streptococcus Pneumonia GYR 1171; details: organism code YY; BHI agar, 35-37° C., 20 to 24 hours; unit assumed
Outline: as §1

[3] = tested on: Streptococcus pyogenes EES61; details: organism code LL; BHI agar, 35-37° C., 20 to 24 hours; unit assumed
Outline: as §1

[4] = tested on: Streptococcus pyogenes 930; details: organism code MM; BHI agar, 35-37° C., 20 to 24 hours; unit assumed
Outline: as §1

[5] = tested on: Streptococcus agalactiae CMX 508; details: organism code KK; BHI agar, 35-37° C., 20 to 24 hours; unit assumed
Outline: as §1

[6] = tested on: Streptococcus Pneumonia 5979; details: organism code ZZ; BHI agar, 35-37° C., 20 to 24 hours; unit assumed
Outline: as §1

[7] = tested on: Haemophilis Influenzae DILL AMP R; details: organism code WW; BHI agar, 35-37° C., 20 to 24 hours; unit assumed
Outline: as §1

[8] = tested on: Staphylococcus aureus ATCC 6538P; details: organism code AA; BHI agar, 35-37° C., 20 to 24 hours; unit assumed
Outline: as §1

[9] = tested on: Staphylococcus aureus A5177; details: organism code BB; BHI agar, 35-37° C., 20 to 24 hours; unit assumed
Outline: as §1

[10] = tested on: Micrococcus luteus ATCC 4698; details: organism code PP; BHI agar, 35-37° C., 20 to 24 hours; unit assumed
Outline: (§2)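 Agar dilution in BHI agar, twelve successive compound dilutions. Inoculum 1:100, or 1:10 for slow-growing strains (e.g. Streptococcus), replicator-spotted. Read by eye; MIC = lowest concentration with no growth, slight haze or sparsely isolated colonies relative to growth control.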

[11] = tested on: Streptococcus Pneumonia ATCC6303; details: organism code XX; BHI agar, 35-37° C., 20 to 24 hours; unit assumed
Outline: as §1

[12] = tested on: Staphylococcus aureus A-5278; details: organism code CC; BHI agar, 35-37° C., 20 to 24 hours; unit assumed
Outline: as §1

[13] = tested on: Staphylococcus epidermidis 3519; details: organism code HH; BHI agar, 35-37° C., 20 to 24 hours; unit assumed
Outline: as §1

[14] = tested on: Enterococcus faecium ATCC 8043; details: organism code II; BHI agar, 35-37° C., 20 to 24 hours; unit assumed
Outline: as §1

[15] = tested on: Streptococcus bovis A-5169; details: organism code JJ; BHI agar, 35-37° C., 20 to 24 hours; unit assumed
Outline: as §1

[16] = tested on: Staphylococcus aureus CMX 642A; details: organism code DD; BHI agar, 35-37° C., 20 to 24 hours; unit assumed
Outline: as §1

[17] = tested on: Candida albicans CCH 442; details: organism code TT; BHI agar, 35-37° C., 20 to 24 hours; unit assumed
Outline: as §1

[18] = tested on: Mycobacterium smegmatis ATCC 114; details: organism code UU; BHI agar, 35-37° C., 20 to 24 hours; unit assumed
Outline: as §1

[19] = tested on: Micrococcus luteus ATCC 9341; details: organism code OO; BHI agar, 35-37° C., 20 to 24 hours; unit assumed
Outline: as §2

[20] = tested on: Streptococcus Pneumonia 5649; details: organism code ZZA; BHI agar, 35-37° C., 20 to 24 hours; unit assumed
Outline: as §1

[21] = tested on: Escherichia coli JUHL; details: organism code QQ; BHI agar, 35-37° C., 20 to 24 hours; unit assumed
Outline: as §1

[22] = tested on: Nocardia Asteroides ATCC9970; details: organism code VV; BHI agar, 35-37° C., 20 to 24 hours; unit assumed
Outline: as §1

[23] = tested on: Escherichia coli DC-2; details: organism code SS; BHI agar, 35-37° C., 20 to 24 hours; unit assumed
Outline: as §1

[24] = tested on: Escherichia coli SS; details: organism code RR; BHI agar, 35-37° C., 20 to 24 hours; unit assumed
Outline: as §1

[25] = tested on: Staphylococcus aureus 1775; details: organism code GG; BHI agar, 35-37° C., 20 to 24 hours; unit assumed
Outline: as §1

[26] = tested on: Staphylococcus aureus CMX 553; details: organism code FF; BHI agar, 35-37° C., 20 to 24 hours; unit assumed
Outline: as §1

[27] = tested on: Staphylococcus aureus NCTC10649M; details: organism code EE; BHI agar, 35-37° C., 20 to 24 hours; unit assumed
Outline: as §1

| SMILES | MIC [1] [µg/mL] | MIC [2] [µg/mL] | MIC [3] [µg/mL] | MIC [4] [µg/mL] | MIC [5] [µg/mL] | MIC [6] [µg/mL] | MIC [7] [µg/mL] | MIC [8] [µg/mL] | MIC [9] [µg/mL] | MIC [10] [µg/mL] | MIC [11] [µg/mL] | MIC [12] [µg/mL] | MIC [13] [µg/mL] | MIC [14] [µg/mL] | MIC [15] [µg/mL] | MIC [16] [µg/mL] | MIC [17] [µg/mL] | MIC [18] [µg/mL] | MIC [19] [µg/mL] | MIC [20] [µg/mL] | also measured |
| --- | --- | --- | --- | --- | --- | --- | --- | --- | --- | --- | --- | --- | --- | --- | --- | --- | --- | --- | --- | --- | --- |
| CC[C@H]1OC(=O)[C@H](C)C(=O)[C@H](C)[C@@H](O[C@@H]2O[C@H](C)C[C@H](N(C)C)[C@H]2O)[C@](C)(OC/C=C/c2ccc(-c3cncnc3)s2)C[C@@H](C)C(=O)[C@H](C)[C@H]2NC(=O)O[C@@]21C [Example 70] | 0.1 (≈ 0.125 µM) | 0.015 (≈ 0.0188 µM) | 0.01 (≈ 0.0125 µM) | 12.5 (≈ 15.6 µM) | 0.02 (≈ 0.025 µM) | 4 (≈ 5.01 µM) | 4 (≈ 5.01 µM) | 0.1 (≈ 0.125 µM) | 0.2 (≈ 0.25 µM) | 0.1 (≈ 0.125 µM) | 0.015 (≈ 0.0188 µM) | > 100 | 0.1 (≈ 0.125 µM) | 0.05 (≈ 0.0626 µM) | 0.01 (≈ 0.0125 µM) | 0.1 (≈ 0.125 µM) | > 100 | 0.39 (≈ 0.488 µM) | 0.02 (≈ 0.025 µM) | 0.25 (≈ 0.313 µM) | MIC [21]: 100 µg/mL (≈ 125 µM); MIC [22]: 0.02 µg/mL (≈ 0.025 µM); MIC [23]: 100 µg/mL (≈ 125 µM); MIC [24]: 0.78 µg/mL (≈ 0.976 µM); MIC [25]: > 100 µg/mL; MIC [26]: 0.1 µg/mL (≈ 0.125 µM); MIC [27]: 0.2 µg/mL (≈ 0.25 µM) |
| CC[C@H]1OC(=O)[C@H](C)C(=O)[C@H](C)[C@@H](O[C@@H]2O[C@H](C)C[C@H](N(C)C)[C@H]2O)[C@](C)(OC/C=C/c2ccc(-c3cnccn3)s2)C[C@@H](C)C(=O)[C@H](C)[C@H]2NC(=O)O[C@@]21C [Example 62] | 0.1 (≈ 0.125 µM) | ≤ 0.004 | ≤ 0.005 | 3.1 (≈ 3.88 µM) | ≤ 0.005 | 2 (≈ 2.5 µM) | 2 (≈ 2.5 µM) | 0.05 (≈ 0.0626 µM) | 0.05 (≈ 0.0626 µM) | 0.05 (≈ 0.0626 µM) | ≤ 0.004 | > 100 | 0.05 (≈ 0.0626 µM) | 0.02 (≈ 0.025 µM) | ≤ 0.005 | 0.05 (≈ 0.0626 µM) | > 100 | 0.78 (≈ 0.976 µM) | ≤ 0.005 | 0.03 (≈ 0.0375 µM) | MIC [21]: 50 µg/mL (≈ 62.6 µM); MIC [22]: ≤ 0.005 µg/mL; MIC [23]: 25 µg/mL (≈ 31.3 µM); MIC [24]: 0.2 µg/mL (≈ 0.25 µM); MIC [25]: > 100 µg/mL; MIC [26]: 0.02 µg/mL (≈ 0.025 µM); MIC [27]: 0.02 µg/mL (≈ 0.025 µM) |
| CC[C@H]1OC(=O)[C@H](C)C(=O)[C@H](C)[C@@H](O[C@@H]2O[C@H](C)C[C@H](N(C)C)[C@H]2O)[C@](C)(OCC#Cc2ccc(-c3cncs3)s2)C[C@@H](C)C(=O)[C@H](C)[C@H]2NC(=O)O[C@@]21C [Example 29] | 0.05 (≈ 0.0623 µM) | ≤ 0.004 | 0.01 (≈ 0.0125 µM) | 3.1 (≈ 3.87 µM) | 0.01 (≈ 0.0125 µM) | 1 (≈ 1.25 µM) | 2 (≈ 2.49 µM) | 0.05 (≈ 0.0623 µM) | 0.05 (≈ 0.0623 µM) | 0.05 (≈ 0.0623 µM) | ≤ 0.004 | > 100 | 0.05 (≈ 0.0623 µM) | 0.01 (≈ 0.0125 µM) | ≤ 0.005 | 0.05 (≈ 0.0623 µM) | > 100 | 0.39 (≈ 0.486 µM) | ≤ 0.005 | 0.25 (≈ 0.312 µM) | MIC [21]: 25 µg/mL (≈ 31.2 µM); MIC [22]: ≤ 0.005 µg/mL; MIC [23]: 50 µg/mL (≈ 62.3 µM); MIC [24]: 0.1 µg/mL (≈ 0.125 µM); MIC [25]: > 100 µg/mL; MIC [26]: 0.02 µg/mL (≈ 0.0249 µM); MIC [27]: 0.02 µg/mL (≈ 0.0249 µM) |
